Results as given in ChEMBL document CHEMBL2046338, “Synthesis and antimalarial activity of calothrixins A and B, and their N-alkyl derivatives” (Bioorg Med Chem Lett, 2012).

tested on: Plasmodium falciparum; assay: Antimalarial activity against chloroquine sensitive Plasmodium falciparum FCR-3; format: functional; settings: FCR-3/Gambia

SMILES | IC50
O=C1c2c[n+]([O-])c3ccccc3c2C(=O)c2[nH]c3ccccc3c21 [CALOTHRIXIN A] | 185 nM
CC(C)n1c2c(c3ccccc31)C(=O)c1cnc3ccccc3c1C2=O | 6400 nM
O=C1c2c[n+]([O-])c3ccccc3c2C(=O)c2c1c1ccccc1n2CCO | 250 nM
O=C1c2cnc3ccccc3c2C(=O)c2c1c1ccccc1n2CCO | 330 nM
O=C1c2[nH]c3ccccc3c2C(=O)c2cnc3ccccc3c21 [CALOTHRIXIN B] | 120 nM
Cn1c2c(c3ccccc31)C(=O)c1cnc3ccccc3c1C2=O | 490 nM
Cn1c2c(c3ccccc31)C(=O)c1c[n+]([O-])c3ccccc3c1C2=O | 380 nM
CC(C)n1c2c(c3ccccc31)C(=O)c1c[n+]([O-])c3ccccc3c1C2=O | 320 nM
CCn1c2c(c3ccccc31)C(=O)c1cnc3ccccc3c1C2=O | 2200 nM
CCn1c2c(c3ccccc31)C(=O)c1c[n+]([O-])c3ccccc3c1C2=O | 380 nM
